{"source": "patent US7811760B2", "about": "“Vector and method for detecting the change in transcription amount” (priority 2006, dated 2010)", "biological_target": "T1, aryl hydrocarbon receptor (Rattus norvegicus, UniProt P41738, Q794H)", "T1 construct": "The SD-line rat AhR gene-coding region was amplified from the reverse-transcribed sample by means of PCR; V5-His (C-terminal tag of vector pcDNA4/V5-His B); expressed in transfected cells; host or cells: mouse neuroblastoma Neuro2a, transient transfection with LIPOFECTAMINE 2000", "T1 sequence (P41738 10-853 Q794H)": "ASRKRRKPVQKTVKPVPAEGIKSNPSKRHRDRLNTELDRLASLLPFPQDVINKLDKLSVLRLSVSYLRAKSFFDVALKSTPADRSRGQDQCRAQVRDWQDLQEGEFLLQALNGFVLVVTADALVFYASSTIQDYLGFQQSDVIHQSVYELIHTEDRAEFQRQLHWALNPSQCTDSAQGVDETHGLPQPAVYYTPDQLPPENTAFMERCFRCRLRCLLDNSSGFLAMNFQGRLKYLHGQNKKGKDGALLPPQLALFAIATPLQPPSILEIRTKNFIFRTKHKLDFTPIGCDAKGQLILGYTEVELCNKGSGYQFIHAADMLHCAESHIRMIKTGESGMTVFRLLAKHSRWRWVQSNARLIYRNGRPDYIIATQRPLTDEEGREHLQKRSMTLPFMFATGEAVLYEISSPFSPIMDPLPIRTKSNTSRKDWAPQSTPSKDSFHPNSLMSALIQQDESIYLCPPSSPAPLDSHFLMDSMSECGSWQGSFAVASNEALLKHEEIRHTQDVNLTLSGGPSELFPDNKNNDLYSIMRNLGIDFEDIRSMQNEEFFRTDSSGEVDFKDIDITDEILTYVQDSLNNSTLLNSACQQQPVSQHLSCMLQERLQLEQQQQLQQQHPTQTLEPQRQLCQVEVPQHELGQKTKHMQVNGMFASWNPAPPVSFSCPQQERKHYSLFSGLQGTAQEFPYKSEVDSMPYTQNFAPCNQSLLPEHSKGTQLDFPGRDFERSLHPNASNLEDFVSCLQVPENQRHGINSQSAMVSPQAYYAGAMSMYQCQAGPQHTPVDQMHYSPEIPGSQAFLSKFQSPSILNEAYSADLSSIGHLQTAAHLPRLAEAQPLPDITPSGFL", "test": "Reporter gene assay in Neuro2a with pSV40E100/Luc and pTHE100/Luc (SEQ ID No: 3)", "type": "cell-based, SD-line rat", "details": "10 nM TCDD; pTHE100/Luc compared with pSV40E100/Luc", "experimental": "The TH transcriptional regulatory region of SEQ ID No: 3 (−300 to −200 bp) was used in Example 6. The TH transcriptional regulatory region ranging from −300 to −200 position was prepared by PCR using the 500-bp size of TH transcriptional regulatory region as a template. The following primers were used.\nRecognition sequences for restriction enzymes KpnI (for forward primer) and NheI (for reverse primer) were added to the terminal of the respective primers, for the purpose of facilitating incorporation of the PCR amplified fragment into the vector. The region of SEQ ID No: 3 was amplified by using Pyrobest DNA polymerase. The amplified DNA fragment was digested with restriction enzymes KpnI and NheI, and subjected to electrophoresis on agarose. The corresponding band was purified with a QIAQUICK Gel Extraction Kit, and incorporated into PGV-P2 vector previously digested with KpnI and NheI, to obtain a recombinant vector pSV40E100/Luc. The vector PGV-P2 used contains an SV40 early promoter as its promoter region.\nIn addition, the region of SEQ ID No: 5 (mouse TH gene core promoter region) was amplified by PCR using a forward primer: 5′-[…]-3′ (SEQ ID No: 27) and a reverse primer: 5′-[…]-3′ (SEQ ID No: 28), and using a region of approximately 500 by upstream of the TH gene as the template. […]", "data": [{"molecule": "Clc1cc2c(cc1Cl)Oc1cc(Cl)c(Cl)cc1O2", "note": "[TCDD, 2,3,7,8-tetrachlorodibenzo-p-dioxine]", "values": [{"measurement": "activity in response to test substance, TH gene core promoter versus SV40 early promoter", "result": "higher activity in response to a test substance"}]}]}
